Laboratory results as given in ChEMBL document CHEMBL6083210, “Exploring apoptotic induction of malabaricone A in triple-negative breast cancer cells: an acylphenol phyto-entity isolated from the fruit rind of Myristica malabarica Lam” (RSC Med Chem, 2024).
Calls of active or inactive are those of the source. The calls are words filed in the database; no cut-off is given here.

Legend:
MDA-MB-231 [1] = test: Induction of DNA fragmentation in human MDA-MB-231 cells assessed as appearance of ladder-like pattern at 6 to 10 uM; type: functional, cell-based; conditions: dose 6-10 µM
MDA-MB-231 [2] = test: Upregulation of Bad protein level in human MDA-MB-231 cells at 8 uM measured after 24 hrs; type: functional, cell-based
MDA-MB-231 [3] = test: Upregulation of Bax protein level in human MDA-MB-231 cells at 8 uM measured after 24 hrs; type: functional, cell-based
MDA-MB-231 [4] = test: Upregulation of Bid protein level in human MDA-MB-231 cells at 8 uM measured after 24 hrs; type: functional, cell-based
MDA-MB-231 [5] = test: Upregulation of caspase 3 protein level in human MDA-MB-231 cells at 8 uM measured after 24 hrs; type: functional, cell-based
MDA-MB-231 [6] = test: Upregulation of caspase 8 protein level in human MDA-MB-231 cells at 8 uM measured after 24 hrs; type: functional, cell-based
MDA-MB-231 [7] = test: Downregulation of cIAP-2 protein level in human MDA-MB-231 cells at 8 uM measured after 24 hrs; type: functional, cell-based
MDA-MB-231 [8] = test: Upregulation of Fas protein level in human MDA-MB-231 cells at 8 uM measured after 24 hrs; type: functional, cell-based
MDA-MB-231 [9] = test: Upregulation of FasL protein level in human MDA-MB-231 cells at 8 uM measured after 24 hrs; type: functional, cell-based
MDA-MB-231 [10] = test: Upregulation of HTRA protein level in human MDA-MB-231 cells at 8 uM measured after 24 hrs; type: functional, cell-based
MDA-MB-231 [11] = test: Upregulation of p53 protein level in human MDA-MB-231 cells at 8 uM measured after 24 hrs; type: functional, cell-based
MDA-MB-231 [12] = test: Downregulation of livin protein level in human MDA-MB-231 cells at 8 uM measured after 24 hrs; type: functional, cell-based
MDA-MB-231 [13] = test: Upregulation of Smac protein level in human MDA-MB-231 cells at 8 uM measured after 24 hrs; type: functional, cell-based
MDA-MB-231 [14] = test: Upregulation of TNF-R1 protein level in human MDA-MB-231 cells at 8 uM measured after 24 hrs; type: functional, cell-based
MDA-MB-231 [15] = test: Upregulation of TNF-alpha protein level in human MDA-MB-231 cells at 8 uM measured after 24 hrs; type: functional, cell-based
MDA-MB-231 [16] = test: Upregulation of TNF-beta protein level in human MDA-MB-231 cells at 8 uM measured after 24 hrs; type: functional, cell-based
MDA-MB-231 [17] = test: Downregulation of XIAP protein level in human MDA-MB-231 cells at 8 uM measured after 24 hrs; type: functional, cell-based
MDA-MB-231 [18] = test: Induction of cell cycle arrest in human MDA-MB-231 cells assessed as accumulation of cells at Sub G0 phase at 6 uM incubated for 24 hrs by PI staining based flow cytometry analysis (reference value: 5.3%); type: functional
MDA-MB-231 [19] = test: Induction of cell cycle arrest in human MDA-MB-231 cells assessed as accumulation of cells at Sub G0 phase at 8 uM incubated for 24 hrs by PI staining based flow cytometry analysis (reference value: 5.3%); type: functional
MDA-MB-231 [20] = test: Induction of cell cycle arrest in human MDA-MB-231 cells assessed as accumulation of cells at G1 phase at 6 uM incubated for 24 hrs by PI staining based flow cytometry analysis (reference value: 74.2%); type: functional
MDA-MB-231 [21] = test: Induction of cell cycle arrest in human MDA-MB-231 cells assessed as accumulation of cells at G1 phase at 8 uM incubated for 24 hrs by PI staining based flow cytometry analysis (reference value: 74.2%); type: functional
MDA-MB-231 [22] = test: Induction of cell cycle arrest in human MDA-MB-231 cells assessed as accumulation of cells at S phase at 6 uM incubated for 24 hrs by PI staining based flow cytometry analysis (reference value: 12.0%); type: functional
MDA-MB-231 [23] = test: Induction of cell cycle arrest in human MDA-MB-231 cells assessed as accumulation of cells at S phase at 8 uM incubated for 24 hrs by PI staining based flow cytometry analysis (reference value: 12.0%); type: functional
MDA-MB-231 [24] = test: Induction of cell cycle arrest in human MDA-MB-231 cells assessed as accumulation of cells at G2 phase at 6 uM incubated for 24 hrs by PI staining based flow cytometry analysis (reference value: 7.9%); type: functional
MDA-MB-231 [25] = test: Induction of cell cycle arrest in human MDA-MB-231 cells assessed as accumulation of cells at G2 phase at 8 uM incubated for 24 hrs by PI staining based flow cytometry analysis (reference value: 7.9%); type: functional
MDA-MB-231 [26] = test: Downregulation of cyclin A2 level in human MDA-MB-231 cells at 6 to 10 uM by Western blot analysis; type: functional, cell-based; conditions: dose 6-10 µM
MDA-MB-231 [27] = test: Downregulation of cyclin B1 level in human MDA-MB-231 cells at 6 to 10 uM by Western blot analysis; type: functional, cell-based; conditions: dose 6-10 µM
MDA-MB-231 [28] = test: Downregulation of Cdk2 level in human MDA-MB-231 cells at 6 to 10 uM by Western blot analysis; type: functional, cell-based; conditions: dose 6-10 µM
MDA-MB-231 [29] = test: Downregulation of Cdc25c level in human MDA-MB-231 cells at 6 to 10 uM by Western blot analysis; type: functional, cell-based; conditions: dose 6-10 µM

## O=C(CCCCCCCCc1ccccc1)c1c(O)cccc1O [MALABARICONE A]
MDA-MB-231 [1]
  Activity: Active
MDA-MB-231 [2]
  Activity: Active
MDA-MB-231 [3]
  Activity: Active
MDA-MB-231 [4]
  Activity: Active
MDA-MB-231 [5]
  Activity: Active
MDA-MB-231 [6]
  Activity: Active
MDA-MB-231 [7]
  Activity: Active
MDA-MB-231 [8]
  Activity: Active
MDA-MB-231 [9]
  Activity: Active
MDA-MB-231 [10]
  Activity: Active
MDA-MB-231 [11]
  Activity: Active
MDA-MB-231 [12]
  Activity: Active
MDA-MB-231 [13]
  Activity: Active
MDA-MB-231 [14]
  Activity: Active
MDA-MB-231 [15]
  Activity: Active
MDA-MB-231 [16]
  Activity: Active
MDA-MB-231 [17]
  Activity: Active
MDA-MB-231 [18]
  Activity: 48.7%
MDA-MB-231 [19]
  Activity: 59.7%
MDA-MB-231 [20]
  Activity: 36.8%
MDA-MB-231 [21]
  Activity: 27.5%
MDA-MB-231 [22]
  Activity: 9.7%
MDA-MB-231 [23]
  Activity: 9.1%
MDA-MB-231 [24]
  Activity: 3.9%
MDA-MB-231 [25]
  Activity: 2.9%
MDA-MB-231 [26]
  Activity: Active
MDA-MB-231 [27]
  Activity: Active
MDA-MB-231 [28]
  Activity: Active
MDA-MB-231 [29]
  Activity: Active
